Test system: CD18
Assay: Flow cytometry of CD18 on isolated rat neutrophils stimulated with LTB4
Type: cell-based
Settings: in vitro
Description: Flow cytometric analysis of CD18 complex in rat neutrophils was performed according to standard procedures as described in Vedder & Harlan, J. Clin. Invest., 81:676-682 (1988). Rat neutrophils were freshly isolated from rat whole blood according to the method of Williams et al., J. Leukocyte Biol., 42:455-462 (1987). Isolated neutrophils were washed twice in calcium-free Tyrode's solution containing 0.2% bovine serum albumin (BSA) and suspended in RPMI1630 medium. Neutrophils (5×10^5 cells/tube) were incubated with a monoclonal antibody directed against CD18 (Endogen, Boston, Mass.) at 4° C. for 30 minutes. Excess primary antibody was then removed by washing the platelets or neutrophils in RPMI1630. A goat anti-human gig F(AB′)2 FITC conjugate was used as the secondary antibody at a 1:100 dilution (4° C. for 30 minutes). The stained neutrophils were washed twice with RPMI1630 and finally fixed in 1% paraformaldehyde, and then analyzed by flow cytometry (FACScan, Becton-Dickinson, San Jose, Calif.).

CCCCCCCC/C=C\CCCCCCCC(=O)OCC(COP(O)(O)=S)OC (racemic) [LXR-1035, rac-1-thiophosphate-2-O-methyl-3-oleioyl-glycerol]
cell surface expression of the adhesion molecule CD18: inhibits
